From ChEMBL document CHEMBL1821562, “Amine-constrained pyridazinone histamine H₃ receptor antagonists” (Bioorg Med Chem Lett, 2011) come the findings set out here.

Series [1] in a line: Oral bioavailability in rat at 5 mg/kg. Type of series: ADME, organism-based. The note with it: in vivo.
The nature of series [2]: Volume of distribution in rat at 1 mg/kg, iv. Type of series: ADME, organism-based. More on the design: dose 1 mg/kg, route intravenous. As to conditions: in vivo.
The nature of series [3]: Drug uptake in rat brain at 10 mg/kg, ip after 1 hr. It is filed as ADME, organism-based. As to conditions: read-out: Drug uptake. More on the design: dose 10 mg/kg, route intraperitoneal.
Series [4] concerns the target Histamine H3 receptor (Rattus norvegicus, UniProt Q9QYN8). The experiment in a line: Displacement of [3H]-NAMH from rat histamine H3 receptor.
Series [5] in a line: Ratio of drug level in brain to plasma in rat at 10 mg/kg, ip. It is filed as ADME, organism-based. Also noted: dose 10 mg/kg, route intraperitoneal. The note with it: brain and plasma, read-out: BPR.
A short description of series [6]: Metabolic stability in human liver microsomes assessed as half life. It is filed as ADME, Microsome. In general terms: Microsomes from liver hold many membrane-bound enzymes, among them those of drug oxidation.
For series [7], the target named is Histamine H3 receptor (Homo sapiens, UniProt Q9Y5N1). The experiment in a line: Displacement of [3H]-NAMH from human histamine H3 receptor. In general terms: Displacement assays read how much labelled ligand stays bound in the presence of the test substance.
Chain of Histamine H3 receptor (Homo sapiens, UniProt Q9Y5N1) (Q9Y5N1 whole entry): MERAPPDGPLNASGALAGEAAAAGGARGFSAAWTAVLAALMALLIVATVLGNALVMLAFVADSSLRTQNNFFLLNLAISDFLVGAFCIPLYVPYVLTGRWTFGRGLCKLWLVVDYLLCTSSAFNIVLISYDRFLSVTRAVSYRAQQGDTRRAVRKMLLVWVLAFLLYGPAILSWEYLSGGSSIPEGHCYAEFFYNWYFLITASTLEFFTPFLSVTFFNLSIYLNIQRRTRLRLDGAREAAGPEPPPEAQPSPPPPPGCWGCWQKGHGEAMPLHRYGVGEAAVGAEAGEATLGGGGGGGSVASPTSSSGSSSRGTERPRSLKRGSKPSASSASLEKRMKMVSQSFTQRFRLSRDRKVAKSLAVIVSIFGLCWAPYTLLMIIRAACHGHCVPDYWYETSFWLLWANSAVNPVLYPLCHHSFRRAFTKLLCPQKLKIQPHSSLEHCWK
Series [8] has as its system Rattus norvegicus. Kind of series: AUC (0 to 6 hrs) in rat at 5 mg/kg, po. As to conditions: in vivo. It is filed as ADME, organism-based, Plasma. Also noted: time < 6 hr, dose 5 mg/kg, route oral.
Series [9] can be described thus: Metabolic stability in rat liver microsomes assessed as half life. It is filed as ADME, Microsome.
Series [10] can be described thus: Tmax in rat at 5 mg/kg, po. Type of series: ADME, organism-based. Also noted: dose 5 mg/kg, route oral. As to conditions: in vivo.
The nature of series [11]: Metabolic stability in mouse liver microsomes assessed as half life. It is filed as ADME, Microsome.
The nature of series [12]: Cmax in rat at 5 mg/kg, po. Type of series: ADME, organism-based. Also noted: dose 5 mg/kg, route oral. As to conditions: in vivo.
A short description of series [13]: Metabolic stability in dog liver microsomes assessed as half life. It is filed as ADME, Canis lupus familiaris, Microsome.
Another series has as its target T1, Cytochrome P450 1A2 (Homo sapiens, UniProt P05177).
T1 sequence (P05177 whole entry): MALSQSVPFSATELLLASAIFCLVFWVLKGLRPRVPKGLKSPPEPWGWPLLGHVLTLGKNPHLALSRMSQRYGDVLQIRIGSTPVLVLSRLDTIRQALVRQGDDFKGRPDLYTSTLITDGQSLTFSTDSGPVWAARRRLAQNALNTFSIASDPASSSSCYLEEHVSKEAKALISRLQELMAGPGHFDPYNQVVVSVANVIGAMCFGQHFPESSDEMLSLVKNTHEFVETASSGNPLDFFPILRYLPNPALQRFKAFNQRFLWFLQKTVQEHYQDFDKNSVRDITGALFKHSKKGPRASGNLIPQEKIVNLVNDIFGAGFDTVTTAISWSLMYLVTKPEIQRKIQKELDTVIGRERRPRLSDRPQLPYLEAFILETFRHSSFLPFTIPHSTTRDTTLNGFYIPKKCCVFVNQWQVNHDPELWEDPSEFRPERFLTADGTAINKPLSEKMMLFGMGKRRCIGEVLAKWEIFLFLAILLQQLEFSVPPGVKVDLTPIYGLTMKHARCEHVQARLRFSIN
Kind of series: Inhibition of CYP1A2. It is filed as ADME.

The target in another series is Cytochrome P450 2D6 (Homo sapiens, UniProt P10635). Kind of series: Inhibition of CYP2D6. It is filed as ADME.
Chain of Cytochrome P450 2D6 (P10635 whole entry): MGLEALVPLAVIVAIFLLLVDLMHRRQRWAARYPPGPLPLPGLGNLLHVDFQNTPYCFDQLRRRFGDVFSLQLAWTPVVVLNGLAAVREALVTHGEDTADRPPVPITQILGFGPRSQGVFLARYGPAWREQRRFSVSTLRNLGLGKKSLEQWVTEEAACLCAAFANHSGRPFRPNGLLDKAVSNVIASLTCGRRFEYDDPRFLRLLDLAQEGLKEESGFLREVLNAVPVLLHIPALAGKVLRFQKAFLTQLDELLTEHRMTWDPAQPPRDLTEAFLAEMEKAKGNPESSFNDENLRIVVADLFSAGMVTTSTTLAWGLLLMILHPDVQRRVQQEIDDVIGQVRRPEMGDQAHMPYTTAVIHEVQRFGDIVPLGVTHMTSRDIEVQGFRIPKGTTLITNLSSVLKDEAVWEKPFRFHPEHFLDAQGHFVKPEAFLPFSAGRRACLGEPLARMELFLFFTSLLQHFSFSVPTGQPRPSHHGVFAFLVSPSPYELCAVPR
The target in another series is Cytochrome P450 2C19 (Homo sapiens, UniProt P33261). The experiment in a line: Inhibition of CYP2C19. It is filed as ADME.
Chain of Cytochrome P450 2C19 (P33261 whole entry): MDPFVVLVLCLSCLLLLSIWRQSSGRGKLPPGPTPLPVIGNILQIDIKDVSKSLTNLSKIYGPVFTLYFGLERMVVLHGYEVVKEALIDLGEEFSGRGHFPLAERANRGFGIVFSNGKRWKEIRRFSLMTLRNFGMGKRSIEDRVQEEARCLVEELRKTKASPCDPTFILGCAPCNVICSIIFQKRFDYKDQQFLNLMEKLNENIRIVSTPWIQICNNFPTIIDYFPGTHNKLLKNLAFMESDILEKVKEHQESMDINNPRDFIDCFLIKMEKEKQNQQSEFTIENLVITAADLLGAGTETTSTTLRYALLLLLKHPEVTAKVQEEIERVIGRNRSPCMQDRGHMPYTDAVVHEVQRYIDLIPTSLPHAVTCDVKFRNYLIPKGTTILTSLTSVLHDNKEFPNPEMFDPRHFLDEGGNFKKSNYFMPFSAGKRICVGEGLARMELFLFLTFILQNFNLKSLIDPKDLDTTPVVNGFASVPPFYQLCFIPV
Series [14] is described as follows: Clearance in rat at 1 mg/kg, iv. Type of series: ADME, organism-based. More on the design: dose 1 mg/kg, route intravenous. As to conditions: in vivo.
Series [15] can be described thus: Half life in rat at 1 mg/kg, iv. It is filed as ADME, organism-based. More on the design: dose 1 mg/kg, route intravenous. The note with it: in vivo.
The target of another series is Cytochrome P450 3A4 (Homo sapiens, UniProt P08684). Kind of series: Inhibition of CYP3A4. Type of series: ADME.
Chain of Cytochrome P450 3A4 (P08684 whole entry): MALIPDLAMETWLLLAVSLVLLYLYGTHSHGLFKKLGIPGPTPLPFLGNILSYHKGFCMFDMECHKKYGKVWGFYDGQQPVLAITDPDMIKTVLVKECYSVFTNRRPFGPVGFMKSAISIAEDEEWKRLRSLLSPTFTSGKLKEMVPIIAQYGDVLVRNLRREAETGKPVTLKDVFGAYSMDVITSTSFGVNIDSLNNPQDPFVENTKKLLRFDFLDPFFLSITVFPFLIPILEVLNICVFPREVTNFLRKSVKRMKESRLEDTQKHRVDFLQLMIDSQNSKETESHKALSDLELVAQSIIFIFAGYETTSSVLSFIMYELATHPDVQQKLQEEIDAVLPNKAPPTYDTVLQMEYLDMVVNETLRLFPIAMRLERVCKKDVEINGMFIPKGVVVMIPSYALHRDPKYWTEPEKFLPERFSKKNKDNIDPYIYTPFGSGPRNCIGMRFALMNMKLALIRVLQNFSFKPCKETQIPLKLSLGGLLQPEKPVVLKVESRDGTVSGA
For another series, the target named is Cytochrome P450 2C9 (Homo sapiens, UniProt P11712). Kind of series: Inhibition of CYP2C9. Type of series: ADME.
Chain of Cytochrome P450 2C9 (P11712 whole entry): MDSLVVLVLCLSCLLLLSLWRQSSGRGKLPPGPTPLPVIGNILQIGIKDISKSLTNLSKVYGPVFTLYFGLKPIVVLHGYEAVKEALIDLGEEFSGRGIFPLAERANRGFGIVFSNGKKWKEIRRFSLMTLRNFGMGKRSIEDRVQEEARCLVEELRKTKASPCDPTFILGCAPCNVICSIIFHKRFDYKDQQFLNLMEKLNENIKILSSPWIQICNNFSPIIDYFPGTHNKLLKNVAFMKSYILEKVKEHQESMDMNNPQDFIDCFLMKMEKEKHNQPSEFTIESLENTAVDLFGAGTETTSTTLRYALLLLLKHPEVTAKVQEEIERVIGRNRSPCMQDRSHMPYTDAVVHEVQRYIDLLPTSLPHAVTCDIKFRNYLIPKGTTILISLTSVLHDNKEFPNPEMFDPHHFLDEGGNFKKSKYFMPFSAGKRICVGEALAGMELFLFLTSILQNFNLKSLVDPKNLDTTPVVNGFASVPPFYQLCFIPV
Series [16] in a line: Drug uptake in ip dosed rat brain after 1 hr. The note with it: read-out: Drug uptake. It is filed as ADME, organism-based.
Series [17] is described as follows: Cmax in po dosed rat. Type of series: ADME, organism-based. Also noted: route oral. As to conditions: in vivo.
A short description of series [18]: Ratio of drug level in brain to plasma in ip dosed rat. Type of series: ADME, organism-based. As to conditions: brain and plasma, read-out: BPR.
Series [19] is described as follows: Oral bioavailability in rat. It is filed as ADME, organism-based. The note with it: in vivo.
Series [20] deals with Rattus norvegicus. Kind of series: AUC (0 to 6 hrs) in po dosed rat. Also noted: time < 6 hr, route oral. It is filed as ADME, organism-based, Plasma. The note with it: in vivo.

Chain of Histamine H3 receptor (Rattus norvegicus, UniProt Q9QYN8) (Q9QYN8 whole entry): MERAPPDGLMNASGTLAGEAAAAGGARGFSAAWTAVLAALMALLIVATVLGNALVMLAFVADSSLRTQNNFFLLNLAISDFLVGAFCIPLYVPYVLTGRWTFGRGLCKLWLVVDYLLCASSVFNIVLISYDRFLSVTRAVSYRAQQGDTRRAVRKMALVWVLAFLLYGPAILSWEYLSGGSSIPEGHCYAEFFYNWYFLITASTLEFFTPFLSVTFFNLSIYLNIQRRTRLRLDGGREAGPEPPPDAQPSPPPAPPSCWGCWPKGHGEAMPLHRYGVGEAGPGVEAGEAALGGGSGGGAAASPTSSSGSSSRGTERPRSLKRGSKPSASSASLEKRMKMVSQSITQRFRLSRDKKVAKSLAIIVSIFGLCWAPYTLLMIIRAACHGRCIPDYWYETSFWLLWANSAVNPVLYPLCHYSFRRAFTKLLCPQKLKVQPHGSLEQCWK

`C[C@@H]1CCCN1CCCOc1ccc(-c2ccc(=O)n(C)n2)cc1` registered a bioavailability in series [1] of 28%. In addition, the volume of distribution (Vd) in [2] turned out to be 6.5 L/kg. Also, the concentration at 1 h in series [3] was determined as 3440 ng/g. Besides, the Ki worked out at 6 nM at Histamine H3 receptor [4] and 1 nM at Histamine H3 receptor [7]. Besides, the Kp in series [5] is 3.9. Moreover, the half-life in [6], in series [9], in series [11] and in series [13] was > 40 min each time. In the series with Rattus norvegicus [8], this molecule had an AUC of 538 ng·h/mL. Further, the time of peak concentration (Tmax) in series [10] was found to be 60 min. The peak concentration (Cmax) in series [12] was found to be 123 ng/mL.

Turning to `Cn1nc(-c2ccc(C(=O)N3CCN4CCC[C@H]4C3)cc2)ccc1=O`, the Ki on Histamine H3 receptor [4] and at Histamine H3 receptor [7] was > 1000 nM throughout.

Regarding `Cn1nc(-c2ccc(C(=O)N3CCN(C4CCCC4)CC3)cc2)ccc1=O`, the values for the inhibitory constant (Ki) on Histamine H3 receptor [4] and at Histamine H3 receptor [7] were 186 nM and 134 nM, respectively.

The molecule `Cn1nc(-c2ccc(C(=O)N3CCC[C@H]3CN3CCCC3)cc2)ccc1=O` showed a bioavailability in series [1] of 45%. In series [2], the Vd came out at 2.5 L/kg. The concentration for half-maximal inhibition (IC50) against Cytochrome P450 1A2, against Cytochrome P450 2D6, against Cytochrome P450 2C19, on Cytochrome P450 3A4 and against Cytochrome P450 2C9 was > 30000 nM in each case. In [3], the concentration at 1 h was found to be 454 ng/g. The clearance in series [14] worked out at 18 mL/min/kg. Also, the values for the Ki on Histamine H3 receptor [4] and on Histamine H3 receptor [7] were 84 nM and 10 nM, respectively. The Kp in series [5] is 0.37. Moreover, the half-life in series [6] was > 40 min; in series [9] it was > 40 min; in series [15] it was 96 min; in [11], > 40 min; in series [13] it was > 40 min. For the same molecule, the AUC with Rattus norvegicus [8] was 2180 ng·h/mL. The molecule further returned a Cmax in [12] of 412 ng/mL.

As for `Cn1nc(-c2ccc(N3CCN(C4CCCC4)CC3)cc2)ccc1=O`, the values for the inhibition constant Ki at Histamine H3 receptor [4] and at Histamine H3 receptor [7] were 255 nM and 93 nM, respectively.

`CNC(=O)c1ccc(Oc2ccc3c(c2)CCN(C2CCC2)CC3)nc1` [GSK189254]: the concentration at 1 h in [16] was 1660 ng/g. In addition, in series [17], the highest concentration (Cmax) came out at 435 ng/mL. The Kp in series [18] is 1.4. For the same molecule, in [19], the bioavailability is 51%. The molecule also registered an area under the curve (AUC) in the series on Rattus norvegicus [20] of 2600 ng·h/mL.

For the molecule `O=C(c1ccc(-c2ccc(=O)[nH]n2)cc1)N1CCC[C@H]1CN1CCCC1`, the Ki on Histamine H3 receptor [4] turned out to be 46 nM; at Histamine H3 receptor [7], 17 nM.

With `CN1CCCN(c2ccc(-c3ccc(=O)n(C)n3)cc2)CC1`, the values for the Ki on Histamine H3 receptor [4] and at Histamine H3 receptor [7] were > 1000 nM and > 500 nM, respectively.

With `CC(C)N1CCN(C(=O)c2ccc(-c3ccc(=O)n(C)n3)cc2)CC1`, the results for the Ki at Histamine H3 receptor [4] and at Histamine H3 receptor [7] were 185 nM and 167 nM, respectively.

Regarding `CC(C)N1CCN(c2ccc(-c3ccc(=O)n(C)n3)cc2)CC1`, the results for the Ki on Histamine H3 receptor [4] and on Histamine H3 receptor [7] were 419 nM and 110 nM, respectively.

`Cn1nc(-c2ccc(N3CCN4CCC[C@H]4C3)cc2)ccc1=O`: the Ki was > 1000 nM on Histamine H3 receptor [4] and 308 nM on Histamine H3 receptor [7].

As to `Cn1nc(-c2ccc(OC3CCN(C4CCCC4)CC3)cc2)ccc1=O`, the figures for the inhibition constant (Ki) on Histamine H3 receptor [4] and at Histamine H3 receptor [7] were 6 nM and 3 nM, respectively.

In [1], `O=C(c1ccc(-c2ccc(=O)n(-c3ccc(F)cc3)n2)cc1)N1CCC[C@H]1CN1CCCC1` showed a bioavailability of 13%. In [2], this molecule gave a Vd of 1.1 L/kg. The concentration at 1 h in series [3] came out at 529 ng/g. The same molecule returned a clearance in series [14] of 12 mL/min/kg. For the same molecule, the inhibition constant (Ki) at Histamine H3 receptor [4] was 92 nM; on Histamine H3 receptor [7] it was 16 nM. In addition, the Kp in [5] was 0.7. The half-life is > 40 min in [6]; > 40 min in series [9]; 60 min in [15]; > 40 min in [11]; > 40 min in series [13]. In addition, in the series with Rattus norvegicus [8], the AUC came out at 1020 ng·h/mL. The molecule further registered a peak concentration (Cmax) in [12] of 180 ng/mL.

Take `Cn1nc(-c2ccc(OC3CCN(C4CCC4)CC3)cc2)ccc1=O`: the Ki at Histamine H3 receptor [4] and at Histamine H3 receptor [7] was 3 nM each time. Moreover, in [11], the half-life is 35 min.

As usually defined, the bioavailability is dose-corrected exposure relative to a reference, in per cent. The Vd is the apparent volume that relates the amount in the body to the concentration in plasma or blood. By Ki is commonly meant the dissociation constant of the complex between target and ligand, obtained from inhibition or displacement. The term half-life denotes how long it takes for the measured level to halve. One may read the AUC as the area under the concentration-time curve, a measure of exposure. Lower therefore signals low exposure. A word on the Tmax: it is the time at which the peak concentration occurs. The term Cmax denotes the highest concentration seen after dosing. As a reminder, the IC50 is the point on the concentration scale where inhibition reaches its midpoint. The low end stands for higher potency, the high end for lower potency. As usually defined, the clearance is a measure of how efficiently the substance is removed, as volume per time.
